# From patent US20120308554A1, “VEGF-D/VEGFR2/3-MEDIATED REGULATION OF DENDRITES” (UNIVERSITAT HEIDELBERG, priority 2011, published 2012)
# Tests used:
# VEGFC = experiment: qRT-PCR analysis of VEGFC expression in hippocampal neurons; assay type: cell-based, mice; details: hippocampal neurons infected with rAAV
# Experimental: Total RNA was isolated at DIV10 to DIV13 from hippocampal primary neuron cultures or isolated brain tissues with Rneasy Mini Kit (Qiagen, Hilden, Germany) including an optional Dnase I treatment at room temperature for 15 min according to manufacturer's instructions (Qiagen). 1.2 μg of extracted RNA was reverse transcribed into first strand cDNA using High Capacity cDNA Reverse Transcription kit (Applied Biosystems, Foster City, Calif.).
# Quantitative reverse transcriptase PCR (qRT-PCR) was done on an ABI7300 thermal cycler using Universal qRT-PCR master mix with TaqMan Gene Expression Assays for the indicated genes (Applied Biosystems). The following TaqMan Gene Expression Assays were used in this study: Gusb (Mm00446953_m1), cFos (Mm00487425_m1), VEGFD (Mm00438965_m1), VEGFC (Mm01202432_m1), VEGF (Mm01281449_m1), VEGFR3 (Mm01292618_m1), beta-actin (Mm00607939_s1), beta-2 microglobulin (Mm00437762_m1), CBP (Mm01342435_m1), p38 MAPK alpha (Mm00442497_m1), p38 MAPK beta (Mm00440955_m1). Expression of target genes was normalized against the expression of Gusb as endogenous control gene. Data were derived from at least 5 independent experiments.
# C57BL/6 mice = experiment: Morris water maze; assay type: in vivo
# Experimental: rAAVs were delivered by stereotaxic injection into the right dorsal hippocampus of 2 months old male C57BL/6 mice. For the Golgi staining-based morphometric analysis, viral particles were unilaterally injected over a period of 20 min at the following coordinates relative to Bregma: anteroposterior, −2.1 mm; mediolateral, −1.4 mm; dorsoventral, −1.4 to −1.8 mm from the skull surface. For behavior experiments mice were injected bilaterally.
# The behavioral experiments started three weeks after stereotaxic delivery of rAAVs. Mice were habituated to the experimental room and handled once a day for three consecutive days before testing started. Two different sets of mice were used for Morris water maze and contextual fear conditioning experiments. At the end of the experiments, virus infection was assessed.
# Mice were first tested in the hidden-platform version and next in the visible-platform version of the water maze. The water maze consisted of a circular pool (120 cm diameter) filled with opaque water (water was made opaque with non-toxic white paint). The platform (10 cm diameter) was submerged 1 cm below the water level. On the first day of the hidden-platform version, mice were habituated to the water and the platform for two 60 seconds trials. In each habituation trial, mice were allowed to swim for 30 seconds and then placed on the platform for another 30 seconds. During the acquisition phase, mice were placed four times a day into a pool with a submerged platform located in a fixed position (approximately 5 minutes inter-trial interval) for four days. […] On the fifth day, mice were given a 60 second probe trial, for which the platform was not in the pool. This was followed by four more days of training. A second probe trial was given on the tenth day. In the visible-platform version, mice were trained to find the platform using a proximal visible cue (red ball placed 10 cm above the platform). […] The path of the mouse was recorded using a video tracking system (ANY-Maze, Stoelting, Ireland).
substance,measurement,setting,value
"shVEGFD: shRNA targeting mouse VEGFD mRNA (GGGCTTCAGGAGCGAACAT; SEQ ID NO: 1), expressed from rAAV vector or plasmid with U6 promoter",Expression of VEGFC,VEGFC,not affected
same,Swimming speed,"C57BL/6 mice; hidden-platform acquisition, versus rAAV-shSCR",not different between the two groups
same,"time to find hidden platform (escape latency), effect of treatment","C57BL/6 mice; hidden-platform version, versus rAAV-shSCR",no effect of treatment was observed
same,time spent in quadrants during probe trial,"C57BL/6 mice; probe trial, 60 sec",spent similar amounts of time in the different quadrants
